Test results reported in patent US10028961B2, “Therapeutically active compounds and their methods of use” (AGIOS PHARMACEUTICALS, INC., priority 2013, dated 2018).

Tests used:
[1] = target: IDH1-R132H homodimer enzyme (Homo sapiens (Human), UniProt O75874, R132H); assay: In vitro assay IDH1-R132H homodimer, NADPH depletion assay with NADPH/NADP preincubation; format: biochemical; conditions: 5 μM NADPH and 37.5 μM NADP
Method in brief: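 Compounds were added from DMSO at 50× final concentration, and the mutant enzyme was incubated 60 min at room temperature after starting with a substrate mix holding NADPH and 5 mM alpha-ketoglutarate. Residual cofactor, read by fluorescence after excess diaphorase and resazurin, reflects enzyme turnover.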

[2] = target: IDH1-R132C homodimer enzyme (Homo sapiens (Human), UniProt O75874, R132C); assay: In vitro assay IDH1-R132C homodimer, NADPH depletion assay with NADPH/NADP preincubation; format: biochemical; conditions: 5 uM NADPH and 28.75 uM NADP, read-out: IDH R132C NADPH/NADP IC50
Protocol: The following describes the experimental procedures that can be used to obtain data on columns 3 and 5 of Table 5.
A test compound is prepared as 10 mM stock in DMSO and diluted to 50× final concentration in DMSO, for a 50 μl reaction mixture. IDH enzyme activity converting alpha-ketoglutarate to 2-hydroxyglutaric acid is measured using a NADPH depletion assay. In the assay the remaining cofactor is measured at the end of the reaction with the addition of a catalytic excess of diaphorase and resazurin, to generate a fluorescent signal in proportion to the amount of NADPH remaining. […] The reaction is started with the addition of 10 μl of Substrate Mix ([…], 5 mM alpha-ketoglutarate, in Assay Buffer) and the mixture is incubated for 60 minutes at room temperature.
The concentration of alpha-ketoglutarate in the Substrate Buffer is 1 mM.

HT1080 cells = assay: Cellular assay for IDH1m R132C inhibitors, 2-HG by LC-MS in HT1080 cells; format: cell-based; conditions: Homo sapiens, HT-1080
Method in brief: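 2-HG levels were measured by LC-MS in culture medium sampled 48 h after compound addition (0.2% DMSO) to HT1080 cells seeded overnight at 5000 cells/well. A CellTiter-Glo luminescence read at 72 h gave cell viability.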

[3] = system: Neurosphere cells (TS603); assay: Cellular assay for IDH1m R132H inhibitors, 2-HG by LC-MS in neurosphere cells (TS603); format: cell-based; conditions: 2-HG in media at 48 hours
Method in brief: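 TS603 neurosphere cells in NeuroCult medium were dosed with compound (0.25% DMSO final) at 37 C, 5% CO2. After 48 hours, medium 2-HG was measured by LC-MS. At 72 hours, viability was read by CellTiter-Glo luminescence.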

IDH2 R140Q = IDH2 R140Q (Homo sapiens (Human), UniProt P48735, R140Q); assay: In vitro assay for IDH2m R140Q inhibitors, cofactor depletion assay, 16 hr preincubation with NADPH/NADP; format: biochemical; conditions: read-out: IDH2 R140Q 16 hr NADPH/NADP IC50; 16 hrs preincubation with enzyme, 5 uM NADPH and 750 uM NADP
Excerpt: The following describes the experimental procedures used to obtain data on column 6 of Table 5.
The reaction is terminated by the addition of a second enzyme, diaphorase, and a corresponding substrate, resazurin. Diaphorase reduces resazurin to the highly fluorescent resorufin with the concomitant oxidation of NADPH to NADP, both halting the IDH2 reaction by depleting the available cofactor pool and facilitating quantitation of the amount of cofactor remaining after a specific time period through quantitative production of an easily detected fluorophore.
The test compound is then incubated for 16 hrs at room temperature with the enzyme and cofactors before starting the IDH2 reaction with the addition of 10 μl of substrate mix containing 8 mM α-KG (final concentration 1.6 mM) in the buffer described above. After a further 1 hour of incubation at room temperature, the reaction is halted and the remaining NADPH measured through conversion of resazurin to resorufin by the addition of 25 μl Stop Mix (36 μg/ml diaphorase enzyme and 60 μM resazurin; in buffer).

IDH2 R140Q, sequence (P48735 40-452 R140Q): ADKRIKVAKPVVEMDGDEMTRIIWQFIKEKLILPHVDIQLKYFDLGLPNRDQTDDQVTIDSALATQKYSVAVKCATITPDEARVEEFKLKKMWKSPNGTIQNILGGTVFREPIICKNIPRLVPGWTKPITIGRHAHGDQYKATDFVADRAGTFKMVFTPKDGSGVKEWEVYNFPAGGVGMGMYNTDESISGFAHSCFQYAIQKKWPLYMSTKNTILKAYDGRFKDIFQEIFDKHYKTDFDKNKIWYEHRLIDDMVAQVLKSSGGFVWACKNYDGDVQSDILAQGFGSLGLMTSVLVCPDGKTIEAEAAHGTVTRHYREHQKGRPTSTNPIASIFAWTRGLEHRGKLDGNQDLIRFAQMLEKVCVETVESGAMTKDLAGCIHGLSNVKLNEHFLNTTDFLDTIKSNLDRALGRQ
IDH1-R132H homodimer enzyme, sequence (O75874 whole entry R132H): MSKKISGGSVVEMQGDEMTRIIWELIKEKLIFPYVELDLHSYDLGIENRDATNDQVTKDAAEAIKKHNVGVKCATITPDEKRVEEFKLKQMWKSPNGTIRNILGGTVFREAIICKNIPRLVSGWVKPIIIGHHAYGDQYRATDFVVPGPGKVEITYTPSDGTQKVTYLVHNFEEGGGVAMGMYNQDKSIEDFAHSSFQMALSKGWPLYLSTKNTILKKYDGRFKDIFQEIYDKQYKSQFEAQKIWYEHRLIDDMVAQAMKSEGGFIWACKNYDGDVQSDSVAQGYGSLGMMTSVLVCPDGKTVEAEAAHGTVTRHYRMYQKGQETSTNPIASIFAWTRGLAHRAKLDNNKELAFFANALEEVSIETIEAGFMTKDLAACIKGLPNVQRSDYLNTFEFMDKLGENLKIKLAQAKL
IDH1-R132C homodimer enzyme, sequence (O75874 whole entry R132C): as the sequence (O75874 whole entry R132H) above, with H132C counted along it

IC50 [1] | IC50 [2] | IC50 (HT1080 cells) | IC50 [3] | IC50 (IDH2 R140Q) | Structure (SMILES)
50 to 100 nM | 100 to 1000 nM | 100 to 1000 nM | < 50 nM |  | FC1(F)CC[C@H](Nc2nc(Nc3ccnc(C(F)(F)F)c3)nc(-c3cncc(C(F)(F)F)n3)n2)C1 [Compound 391]
100 to 1000 nM |  | 100 to 1000 nM | < 50 nM |  | FC1(F)CCC(Nc2nc(NC3CC4(C3)CC(F)(F)C4)nc(-c3cccc(C(F)(F)F)n3)n2)C1 (stereo not drawn) [Compound 191]
100 to 1000 nM |  |  | < 50 nM | 50 to 100 nM | CC(CC#N)Nc1nc(Nc2ccnc(C(C)(F)F)c2)nc(-c2cccc(C(F)(F)F)n2)n1 (stereo not drawn) [Compound 250]
100 to 1000 nM |  | 100 to 1000 nM |  | 100 to 1000 nM | FC1(F)CCC(Nc2nc(NC3CCOCC3)nc(-c3cccc(C(F)(F)F)n3)n2)CC1 [Compound 255]
 |  | > 1000 nM | < 50 nM | 50 to 100 nM | CC(C)(O)CNc1nc(Nc2cc(F)cc(C#N)c2)nc(-c2cccc(C(F)(F)F)n2)n1 [Compound 244]
< 50 nM |  |  | < 50 nM | < 50 nM | C[C@@H](Nc1nc(Nc2ccnc(C3(C#N)CC3)c2)nc(-c2cccc(Cl)n2)n1)C1CC1 [Compound 167]
 |  |  | < 50 nM | < 50 nM | CC(C)(C)Nc1nc(Nc2cc(F)cc(C#N)c2)nc(-c2nccc(C(F)(F)F)n2)n1 [Compound 245]
> 1000 nM |  | > 1000 nM | < 50 nM | 100 to 1000 nM | CS(=O)(=O)N1CCC(Nc2nc(NC3CCC(F)(F)CC3)nc(-c3cccc(C(F)(F)F)n3)n2)CC1 [Compound 266]
> 1000 nM |  | > 1000 nM |  | 100 to 1000 nM | FC1(F)CCC(Nc2nc(NC3CCN(Cc4ccccc4)C3)nc(-c3cccc(C(F)(F)F)n3)n2)C1 (stereo not drawn) [Compound 280]
100 to 1000 nM | 100 to 1000 nM | 100 to 1000 nM | < 50 nM |  | N#CC1(c2cc(Nc3nc(NC4CCC(F)(F)CC4)nc(-c4cccc(C(F)(F)F)n4)n3)ccn2)CC1 [Compound 189]
< 50 nM |  | 100 to 1000 nM | < 50 nM |  | N#Cc1cc(Nc2nc(NC3CCC(F)(F)C3)nc(-c3cccc(C(F)(F)F)n3)n2)ccn1 (stereo not drawn) [Compound 181]
100 to 1000 nM |  | 100 to 1000 nM | < 50 nM |  | FC1(F)CCC(Nc2nc(NC3CCC(F)(F)CC3)nc(-n3ccc(C(F)(F)F)n3)n2)CC1 [Compound 176]
100 to 1000 nM |  | 100 to 1000 nM | < 50 nM |  | FC(F)c1cccc(-c2nc(NC3CCC(F)(F)CC3)nc(NC3CCC(F)(F)CC3)n2)n1 [Compound 224]
100 to 1000 nM |  | > 1000 nM | < 50 nM |  | CC(C)(CC#N)Nc1nc(Nc2ccnc(C(C)(F)F)c2)nc(-c2cccc(C(F)(F)F)n2)n1 [Compound 231]
< 50 nM | 50 to 100 nM | < 50 nM | < 50 nM |  | N#CC1(c2cc(Nc3nc(NC4CC(F)(F)C4)nc(-c4cccc(C(F)(F)F)n4)n3)ccn2)CC1 [Compound 168]
< 50 nM |  | < 50 nM | < 50 nM | < 50 nM | CC(Nc1nc(N[C@H](C)C2CC2)nc(-c2cccc(C(F)(F)F)n2)n1)C(F)(F)F (stereo partly drawn) [Compound 203]
100 to 1000 nM |  | 100 to 1000 nM | < 50 nM |  | N#CC1(c2cc(Nc3nc(NC4CC5(C4)CC(F)(F)C5)nc(-c4cccc(C(F)(F)F)n4)n3)ccn2)CC1 [Compound 229]
50 to 100 nM |  |  | < 50 nM | < 50 nM | C[C@@H](Nc1nc(NC(C2CC2)C2CC2)nc(-c2cccc(C(F)(F)F)n2)n1)C1CC1 [Compound 193]
100 to 1000 nM |  | 100 to 1000 nM | < 50 nM |  | FC1(F)CCC(Nc2nc(NC3CCC(F)(F)C3)nc(-c3nccc(C(F)(F)F)n3)n2)C1 (stereo not drawn) [Compound 237]
100 to 1000 nM |  | 100 to 1000 nM |  | 100 to 1000 nM | O=C(c1ccccc1)N1CCC(Nc2nc(NC3CCC(F)(F)C3)nc(-c3cccc(C(F)(F)F)n3)n2)C1 (stereo not drawn) [Compound 263]
100 to 1000 nM |  | 100 to 1000 nM | < 50 nM |  | FC1(F)CCC(Nc2nc(Nc3ccnc(C(F)(F)F)c3)nc(-c3cccc(C(F)(F)F)n3)n2)CC1 [Compound 192]
50 to 100 nM |  |  | < 50 nM | < 50 nM | FC1(F)CCC(Nc2nc(Nc3ccnc(C(F)(F)F)c3)nc(-c3cccc(C(F)(F)F)n3)n2)C1 (stereo not drawn) [Compound 178]
> 1000 nM |  | 100 to 1000 nM |  |  | Fc1ccc([C@H]2C[C@@H](Nc3nc(N[C@H]4C[C@@H](c5ccc(F)cc5)C4)nc(-c4cccc(C(F)(F)F)n4)n3)C2)cc1 [Compound 272]

The remaining lines, values behind:

Structure (SMILES) | IC50 [1] | IC50 [2] | IC50 (HT1080 cells) | IC50 [3] | IC50 (IDH2 R140Q)
Fc1cc(F)cc(Nc2nc(NC3CC(F)(F)C3)nc(-n3ccc(C(F)(F)F)n3)n2)c1 [Compound 106] | < 50 nM | < 50 nM | 100 to 1000 nM | < 50 nM | 
FC1(F)CC(Nc2nc(NC3CC(F)(F)C3)nc(-c3cncc(C(F)(F)F)n3)n2)C1 [Compound 161] | < 50 nM | 50 to 100 nM | < 50 nM | < 50 nM | 
FC1(F)CCC(Nc2nc(NC3CCC(F)(F)CC3)nc(-c3cncc(C(F)(F)F)n3)n2)CC1 [Compound 160] | 50 to 100 nM | 100 to 1000 nM | < 50 nM | < 50 nM | 
FC1(F)CC(Nc2nc(NC3CC(F)(F)C3)nc(-c3cccc(C(F)(F)F)n3)n2)C1 [Compound 149] | < 50 nM |  | 50 to 100 nM | < 50 nM | 
FC1(F)CCC(Nc2nc(NC3CCC(F)(F)CC3)nc(-c3cncc(Cl)n3)n2)CC1 [Compound 147] | 50 to 100 nM |  | 100 to 1000 nM | < 50 nM | 
FC1(F)CCC(Nc2nc(Nc3ccnc(C(F)(F)F)c3)nc(-c3cccc(Cl)n3)n2)C1 (stereo not drawn) [Compound 115] | < 50 nM |  | 100 to 1000 nM | < 50 nM | 
C[C@@H](Nc1nc(N[C@H](C)C2CC2)nc(-c2nccc(C(F)(F)F)n2)n1)C1CC1 [Compound 268] | > 1000 nM |  | 100 to 1000 nM | < 50 nM | 50 to 100 nM
CCC(Nc1nc(NC(CC)C2CC2)nc(-c2cccc(Cl)n2)n1)C1CC1 (stereo not drawn) [Compound 110] | 50 to 100 nM |  | 50 to 100 nM | < 50 nM | < 50 nM
CC(F)(F)c1cccc(-c2nc(NC3CCC(F)(F)C3)nc(NC3CCC(F)(F)C3)n2)n1 (stereo not drawn) [Compound 105] | < 50 nM |  | < 50 nM | < 50 nM | 
FC1(F)CCC(Nc2nc(NC3CCC(F)(F)C3)nc(-c3cccc(Cl)n3)n2)C1 (stereo not drawn) [Compound 113] | < 50 nM |  | < 50 nM | < 50 nM | < 50 nM
CC(C)(C)Nc1nc(Nc2cccc(C#N)c2)nc(-c2cccc(C(F)(F)F)n2)n1 [Compound 117] |  |  | > 1000 nM |  | < 50 nM
FC(F)c1cccc(-c2nc(NC3CC(F)(F)C3)nc(NC3CC(F)(F)C3)n2)n1 [Compound 145] | < 50 nM |  | 100 to 1000 nM | < 50 nM | 
Fc1cc(F)cc(Nc2nc(NC3CCC(F)(F)C3)nc(-c3cccc(C(F)(F)F)n3)n2)c1 (stereo not drawn) [Compound 123] | < 50 nM |  | 100 to 1000 nM | < 50 nM | 
C[C@@H](Nc1nc(N[C@H](C)C2CC2)nc(-n2ccc(C(F)(F)F)n2)n1)C1CC1 [Compound 121] | 50 to 100 nM |  | < 50 nM | < 50 nM | 
CC(=O)N1CCC(Nc2nc(NC3CCC(F)(F)CC3)nc(-c3cccc(C(F)(F)F)n3)n2)CC1 [Compound 273] | > 1000 nM |  | > 1000 nM |  | > 1000 nM
CC(Nc1nc(Nc2ccnc(C3(C#N)CC3)c2)nc(-c2cccc(Cl)n2)n1)C(F)(F)F (stereo not drawn) [Compound 134] | < 50 nM |  | < 50 nM | < 50 nM | 
FC1(F)CC(Nc2nc(NC3CC(F)(F)C3)nc(-c3nc(C(F)(F)F)cs3)n2)C1 [Compound 128] | < 50 nM |  | < 50 nM | < 50 nM | 
N#CC1(c2cc(Nc3nc(NC4CCC(F)(F)C4)nc(-c4cccc(Cl)n4)n3)ccn2)CC1 (stereo not drawn) [Compound 127] | < 50 nM |  | 50 to 100 nM | < 50 nM | < 50 nM
